4 compounds from PMC8550792, “Evolution of kinase polypharmacology across HSP90 drug discovery” (Cell Chemical Biology, 2021) can be followed below.

What all share (assay): biochemical
Common to all, as to type: biochemical

For assay [1], the target named is T1, 382 unique human kinases (Homo sapiens, UniProt P07949, Y806H).
T1 construct: purchased Reaction Biology (HotSpot contract assay)
The settings on record: RET (Y806H), 10 uM; for remaining activity at 10 µM: read-out: % Enzyme Activity (relative to DMSO controls).

For assay [2], the target named is T2, 382 unique human kinases (Homo sapiens, UniProt P16234).
T2 construct: purchased Reaction Biology (HotSpot contract assay)
T2 sequence (P16234 24-1089): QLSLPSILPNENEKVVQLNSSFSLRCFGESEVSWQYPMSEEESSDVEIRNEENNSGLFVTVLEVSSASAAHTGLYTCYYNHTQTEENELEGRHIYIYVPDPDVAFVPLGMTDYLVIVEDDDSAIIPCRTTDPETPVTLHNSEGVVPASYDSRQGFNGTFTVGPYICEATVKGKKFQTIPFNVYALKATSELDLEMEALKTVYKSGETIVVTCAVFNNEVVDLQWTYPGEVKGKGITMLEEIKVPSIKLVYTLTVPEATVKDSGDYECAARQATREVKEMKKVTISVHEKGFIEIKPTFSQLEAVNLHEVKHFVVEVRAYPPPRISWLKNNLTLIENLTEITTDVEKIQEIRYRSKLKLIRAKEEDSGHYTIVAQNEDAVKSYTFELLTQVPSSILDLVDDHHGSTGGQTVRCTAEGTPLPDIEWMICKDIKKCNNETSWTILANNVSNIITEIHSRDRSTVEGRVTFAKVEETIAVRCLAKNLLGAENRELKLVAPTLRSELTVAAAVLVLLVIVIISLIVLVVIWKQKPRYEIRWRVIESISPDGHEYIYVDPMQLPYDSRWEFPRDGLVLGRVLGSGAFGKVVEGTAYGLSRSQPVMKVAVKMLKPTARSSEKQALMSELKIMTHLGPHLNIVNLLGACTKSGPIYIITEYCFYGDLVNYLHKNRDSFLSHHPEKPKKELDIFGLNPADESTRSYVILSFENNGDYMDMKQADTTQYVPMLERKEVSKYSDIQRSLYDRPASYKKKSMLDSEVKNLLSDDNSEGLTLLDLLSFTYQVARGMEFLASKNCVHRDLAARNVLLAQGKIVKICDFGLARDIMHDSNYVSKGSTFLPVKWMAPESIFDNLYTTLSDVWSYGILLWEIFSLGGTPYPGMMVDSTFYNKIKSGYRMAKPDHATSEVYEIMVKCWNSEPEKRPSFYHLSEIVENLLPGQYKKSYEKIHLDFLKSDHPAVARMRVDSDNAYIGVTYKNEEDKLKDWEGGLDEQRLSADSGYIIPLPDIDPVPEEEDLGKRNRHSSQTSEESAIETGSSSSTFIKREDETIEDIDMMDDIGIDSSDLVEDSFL
The settings on record: kinase PDGFRa, compound 10 uM; for remaining activity at 10 µM: read-out: % Enzyme Activity (relative to DMSO controls).

Assay [3] deals with T3, 382 unique human kinases (Homo sapiens, UniProt P30291).
T3 construct: purchased Reaction Biology (HotSpot contract assay)
T3 sequence (P30291 whole entry): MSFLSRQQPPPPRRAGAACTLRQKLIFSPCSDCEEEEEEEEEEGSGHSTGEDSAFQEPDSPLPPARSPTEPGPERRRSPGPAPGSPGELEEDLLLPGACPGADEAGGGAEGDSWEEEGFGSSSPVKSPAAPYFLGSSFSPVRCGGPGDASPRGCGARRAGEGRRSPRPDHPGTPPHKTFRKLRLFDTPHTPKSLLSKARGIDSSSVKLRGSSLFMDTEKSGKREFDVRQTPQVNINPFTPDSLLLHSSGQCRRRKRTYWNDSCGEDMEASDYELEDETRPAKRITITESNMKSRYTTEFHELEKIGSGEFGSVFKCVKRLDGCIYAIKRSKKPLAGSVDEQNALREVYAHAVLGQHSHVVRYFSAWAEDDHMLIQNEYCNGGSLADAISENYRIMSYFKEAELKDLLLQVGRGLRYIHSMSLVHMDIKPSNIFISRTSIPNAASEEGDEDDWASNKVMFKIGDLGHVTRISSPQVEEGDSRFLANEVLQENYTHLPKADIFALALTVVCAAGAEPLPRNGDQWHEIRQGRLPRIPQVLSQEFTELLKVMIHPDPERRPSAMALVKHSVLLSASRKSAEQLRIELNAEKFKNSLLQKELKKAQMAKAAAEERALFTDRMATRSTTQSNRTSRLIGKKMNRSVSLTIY
The settings on record: kinase WEE1, compound 10 uM; for remaining activity at 10 µM: read-out: % Enzyme Activity (relative to DMSO controls).

Assay [4] has as its target T4, 382 unique human kinases (Homo sapiens, UniProt P30530, R499C).
T4 construct: purchased Reaction Biology (HotSpot contract assay)
T4 sequence (P30530 26-894 R499C): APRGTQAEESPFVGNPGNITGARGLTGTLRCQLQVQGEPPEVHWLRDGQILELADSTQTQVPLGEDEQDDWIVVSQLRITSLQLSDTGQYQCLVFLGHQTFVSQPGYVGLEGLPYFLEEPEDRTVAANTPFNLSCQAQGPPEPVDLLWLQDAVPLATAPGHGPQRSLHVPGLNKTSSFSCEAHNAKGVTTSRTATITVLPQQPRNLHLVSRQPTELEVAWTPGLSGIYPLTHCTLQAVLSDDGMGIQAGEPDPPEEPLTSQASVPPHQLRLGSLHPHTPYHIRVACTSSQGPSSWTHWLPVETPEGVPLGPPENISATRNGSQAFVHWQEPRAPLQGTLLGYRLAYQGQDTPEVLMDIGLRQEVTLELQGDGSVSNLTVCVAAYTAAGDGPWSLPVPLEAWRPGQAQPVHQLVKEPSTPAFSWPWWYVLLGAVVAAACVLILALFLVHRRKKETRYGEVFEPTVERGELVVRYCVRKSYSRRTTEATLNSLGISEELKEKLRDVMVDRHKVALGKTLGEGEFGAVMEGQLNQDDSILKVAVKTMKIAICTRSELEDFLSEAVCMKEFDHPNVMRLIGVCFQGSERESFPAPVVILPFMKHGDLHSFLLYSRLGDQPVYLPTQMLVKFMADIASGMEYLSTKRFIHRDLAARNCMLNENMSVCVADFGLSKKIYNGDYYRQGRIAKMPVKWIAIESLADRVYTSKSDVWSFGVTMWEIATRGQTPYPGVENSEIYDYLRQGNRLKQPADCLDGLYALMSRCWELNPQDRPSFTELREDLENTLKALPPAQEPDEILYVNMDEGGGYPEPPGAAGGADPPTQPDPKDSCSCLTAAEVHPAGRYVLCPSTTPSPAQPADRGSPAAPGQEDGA
The settings on record: AXL (R499C), 10 uM; for remaining activity at 10 µM: read-out: % Enzyme Activity (relative to DMSO controls).

Assay [5] has as its target T5, 382 unique human kinases (Homo sapiens, UniProt Q86Y07).
T5 construct: purchased Reaction Biology (HotSpot contract assay)
The settings on record: kinase VRK2, compound 10 uM; for remaining activity at 10 µM: read-out: % Enzyme Activity (relative to DMSO controls).

In assay [6] the target is T6, 382 unique human kinases (Homo sapiens, UniProt Q99683).
T6 construct: purchased Reaction Biology (HotSpot contract assay)
T6 sequence (Q99683 1-1374): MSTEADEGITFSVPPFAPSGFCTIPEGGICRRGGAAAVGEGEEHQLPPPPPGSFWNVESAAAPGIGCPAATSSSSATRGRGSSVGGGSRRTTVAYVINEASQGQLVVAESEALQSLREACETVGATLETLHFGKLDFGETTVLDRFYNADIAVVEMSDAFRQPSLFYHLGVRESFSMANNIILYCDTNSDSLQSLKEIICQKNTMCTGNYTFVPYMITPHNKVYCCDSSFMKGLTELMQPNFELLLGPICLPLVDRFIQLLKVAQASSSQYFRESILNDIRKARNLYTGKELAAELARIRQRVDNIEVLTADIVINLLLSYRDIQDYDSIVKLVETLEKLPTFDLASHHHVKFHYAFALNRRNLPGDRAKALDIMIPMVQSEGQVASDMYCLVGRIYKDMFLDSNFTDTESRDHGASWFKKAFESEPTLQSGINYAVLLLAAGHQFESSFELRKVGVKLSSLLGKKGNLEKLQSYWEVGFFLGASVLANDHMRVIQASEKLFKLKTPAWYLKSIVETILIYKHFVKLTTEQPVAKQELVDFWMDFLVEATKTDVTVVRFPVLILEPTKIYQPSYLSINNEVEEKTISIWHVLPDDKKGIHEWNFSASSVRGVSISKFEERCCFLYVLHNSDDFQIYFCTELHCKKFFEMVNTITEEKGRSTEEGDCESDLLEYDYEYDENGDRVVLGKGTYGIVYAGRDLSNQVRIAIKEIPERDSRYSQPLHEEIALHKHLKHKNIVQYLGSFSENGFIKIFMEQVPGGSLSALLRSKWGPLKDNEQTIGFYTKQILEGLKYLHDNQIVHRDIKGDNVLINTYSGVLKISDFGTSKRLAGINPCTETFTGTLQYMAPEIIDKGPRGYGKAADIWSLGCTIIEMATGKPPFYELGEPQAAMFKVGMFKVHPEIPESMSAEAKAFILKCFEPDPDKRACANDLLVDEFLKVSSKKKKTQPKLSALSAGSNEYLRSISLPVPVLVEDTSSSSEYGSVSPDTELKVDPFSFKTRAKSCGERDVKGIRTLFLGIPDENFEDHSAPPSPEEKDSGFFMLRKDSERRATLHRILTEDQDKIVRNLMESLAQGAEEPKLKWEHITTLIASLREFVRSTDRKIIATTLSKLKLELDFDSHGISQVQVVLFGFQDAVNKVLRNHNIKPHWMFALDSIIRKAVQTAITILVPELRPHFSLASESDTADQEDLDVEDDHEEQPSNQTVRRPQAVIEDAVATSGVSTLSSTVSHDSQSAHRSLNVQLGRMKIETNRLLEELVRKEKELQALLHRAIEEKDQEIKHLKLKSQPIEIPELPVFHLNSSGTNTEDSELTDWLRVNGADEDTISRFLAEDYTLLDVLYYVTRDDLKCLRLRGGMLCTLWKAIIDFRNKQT
The settings on record: ASK1/MAP3K5, compound at 10 uM, duplicate values; for remaining activity at 10 µM: read-out: % Enzyme Activity (relative to DMSO controls).

In assay [7] the target is T7, 382 unique human kinases (Homo sapiens, UniProt P00533, DEL746-750).
T7 construct: purchased Reaction Biology (HotSpot contract assay)
The settings on record: EGFR (d746-750), 10 uM; for remaining activity at 10 µM: read-out: % Enzyme Activity (relative to DMSO controls).

Assay [8] deals with T8, 382 unique human kinases (Homo sapiens, UniProt P07949, M918T).
T8 construct: purchased Reaction Biology (HotSpot contract assay)
T8 sequence (P07949 29-1114 M918T): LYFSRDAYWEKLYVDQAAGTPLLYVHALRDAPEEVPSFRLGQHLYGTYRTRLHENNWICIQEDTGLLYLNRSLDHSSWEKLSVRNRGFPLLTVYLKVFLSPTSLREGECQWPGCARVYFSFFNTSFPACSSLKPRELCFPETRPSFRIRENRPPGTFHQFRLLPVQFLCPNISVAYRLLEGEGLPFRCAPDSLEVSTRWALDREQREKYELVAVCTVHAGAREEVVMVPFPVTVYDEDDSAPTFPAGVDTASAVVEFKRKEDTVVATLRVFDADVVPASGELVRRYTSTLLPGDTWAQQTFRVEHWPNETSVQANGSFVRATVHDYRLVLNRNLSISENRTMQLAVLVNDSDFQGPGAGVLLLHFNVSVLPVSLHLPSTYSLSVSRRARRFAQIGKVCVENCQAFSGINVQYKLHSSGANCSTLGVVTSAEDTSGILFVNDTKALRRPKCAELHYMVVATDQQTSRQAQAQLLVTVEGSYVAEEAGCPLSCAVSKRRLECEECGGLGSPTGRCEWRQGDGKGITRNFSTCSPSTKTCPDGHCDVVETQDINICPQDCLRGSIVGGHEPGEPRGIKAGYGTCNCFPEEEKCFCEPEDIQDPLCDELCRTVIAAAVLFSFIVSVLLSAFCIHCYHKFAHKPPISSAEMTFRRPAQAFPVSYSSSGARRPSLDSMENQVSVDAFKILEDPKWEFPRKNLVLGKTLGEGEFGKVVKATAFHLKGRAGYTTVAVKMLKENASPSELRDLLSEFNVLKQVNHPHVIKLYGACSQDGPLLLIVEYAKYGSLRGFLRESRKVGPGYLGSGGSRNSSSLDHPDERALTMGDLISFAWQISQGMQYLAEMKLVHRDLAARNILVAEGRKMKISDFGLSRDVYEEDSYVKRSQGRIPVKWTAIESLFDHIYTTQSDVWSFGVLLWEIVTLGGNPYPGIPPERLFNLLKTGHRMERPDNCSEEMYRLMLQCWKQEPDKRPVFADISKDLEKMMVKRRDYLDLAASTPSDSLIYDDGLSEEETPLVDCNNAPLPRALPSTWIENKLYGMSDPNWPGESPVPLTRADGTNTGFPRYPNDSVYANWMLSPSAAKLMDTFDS
The settings on record: RET (M918T), 10 uM; for remaining activity at 10 µM: read-out: % Enzyme Activity (relative to DMSO controls).

For assay [9], the target named is T9, 382 unique human kinases (Homo sapiens, UniProt Q13153).
T9 construct: purchased Reaction Biology (HotSpot contract assay)
T9 sequence (Q13153 whole entry): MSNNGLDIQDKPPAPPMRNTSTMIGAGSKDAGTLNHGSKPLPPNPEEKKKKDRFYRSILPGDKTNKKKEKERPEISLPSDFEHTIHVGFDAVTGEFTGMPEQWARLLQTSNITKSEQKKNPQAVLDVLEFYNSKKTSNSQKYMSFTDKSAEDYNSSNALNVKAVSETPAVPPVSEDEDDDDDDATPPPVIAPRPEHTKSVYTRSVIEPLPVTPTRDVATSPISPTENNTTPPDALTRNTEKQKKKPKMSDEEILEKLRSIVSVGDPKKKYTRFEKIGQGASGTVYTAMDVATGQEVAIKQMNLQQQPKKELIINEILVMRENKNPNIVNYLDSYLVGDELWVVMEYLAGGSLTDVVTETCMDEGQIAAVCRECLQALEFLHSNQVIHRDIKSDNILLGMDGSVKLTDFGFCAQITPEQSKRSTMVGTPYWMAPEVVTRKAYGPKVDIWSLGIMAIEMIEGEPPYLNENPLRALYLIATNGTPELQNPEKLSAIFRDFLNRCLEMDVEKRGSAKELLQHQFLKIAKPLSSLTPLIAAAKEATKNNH
The settings on record: PAK1, 10 uM; for remaining activity at 10 µM: read-out: % Enzyme Activity (relative to DMSO controls).

The target of assay [10] is T10, 382 unique human kinases (Homo sapiens, UniProt Q9H2X6).
T10 construct: purchased Reaction Biology (HotSpot contract assay)
T10 sequence (Q9H2X6 whole entry): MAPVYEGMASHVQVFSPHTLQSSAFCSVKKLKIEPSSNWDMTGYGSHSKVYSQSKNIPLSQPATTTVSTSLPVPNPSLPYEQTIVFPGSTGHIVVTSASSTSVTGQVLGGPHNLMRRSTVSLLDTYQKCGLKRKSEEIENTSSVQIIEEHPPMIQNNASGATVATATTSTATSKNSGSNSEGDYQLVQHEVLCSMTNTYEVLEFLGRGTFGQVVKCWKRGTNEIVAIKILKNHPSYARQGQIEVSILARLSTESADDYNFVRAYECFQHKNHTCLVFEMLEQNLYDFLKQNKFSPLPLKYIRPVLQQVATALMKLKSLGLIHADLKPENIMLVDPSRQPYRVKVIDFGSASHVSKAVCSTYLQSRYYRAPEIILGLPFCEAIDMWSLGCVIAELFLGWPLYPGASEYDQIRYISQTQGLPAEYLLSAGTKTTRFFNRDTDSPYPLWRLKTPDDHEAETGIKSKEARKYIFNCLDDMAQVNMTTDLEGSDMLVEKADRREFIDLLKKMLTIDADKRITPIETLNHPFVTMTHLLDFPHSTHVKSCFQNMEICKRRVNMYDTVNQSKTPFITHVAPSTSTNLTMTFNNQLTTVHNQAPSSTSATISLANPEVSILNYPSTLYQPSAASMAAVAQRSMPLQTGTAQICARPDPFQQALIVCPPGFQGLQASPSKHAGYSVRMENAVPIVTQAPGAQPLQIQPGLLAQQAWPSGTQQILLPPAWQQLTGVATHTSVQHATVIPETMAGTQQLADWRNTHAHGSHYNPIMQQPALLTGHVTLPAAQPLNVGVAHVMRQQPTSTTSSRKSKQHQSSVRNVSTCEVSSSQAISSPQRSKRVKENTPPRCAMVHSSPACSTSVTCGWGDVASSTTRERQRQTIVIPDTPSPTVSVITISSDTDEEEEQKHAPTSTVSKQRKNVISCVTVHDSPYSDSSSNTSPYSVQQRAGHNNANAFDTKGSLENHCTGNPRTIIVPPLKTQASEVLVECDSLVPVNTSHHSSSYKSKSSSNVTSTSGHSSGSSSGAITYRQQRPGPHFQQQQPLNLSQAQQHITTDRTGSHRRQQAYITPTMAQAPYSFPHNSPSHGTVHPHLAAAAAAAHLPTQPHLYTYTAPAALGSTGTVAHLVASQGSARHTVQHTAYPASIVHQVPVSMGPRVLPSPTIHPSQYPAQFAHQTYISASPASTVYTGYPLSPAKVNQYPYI
The settings on record: HIPK2, 10 uM; for remaining activity at 10 µM: read-out: % Enzyme Activity (relative to DMSO controls).

T1 sequence (P07949 29-1114 Y806H): as the sequence (P07949 29-1114 M918T) above, with Y778H, T890M counted along it
T5 sequence (Q86Y07 whole entry): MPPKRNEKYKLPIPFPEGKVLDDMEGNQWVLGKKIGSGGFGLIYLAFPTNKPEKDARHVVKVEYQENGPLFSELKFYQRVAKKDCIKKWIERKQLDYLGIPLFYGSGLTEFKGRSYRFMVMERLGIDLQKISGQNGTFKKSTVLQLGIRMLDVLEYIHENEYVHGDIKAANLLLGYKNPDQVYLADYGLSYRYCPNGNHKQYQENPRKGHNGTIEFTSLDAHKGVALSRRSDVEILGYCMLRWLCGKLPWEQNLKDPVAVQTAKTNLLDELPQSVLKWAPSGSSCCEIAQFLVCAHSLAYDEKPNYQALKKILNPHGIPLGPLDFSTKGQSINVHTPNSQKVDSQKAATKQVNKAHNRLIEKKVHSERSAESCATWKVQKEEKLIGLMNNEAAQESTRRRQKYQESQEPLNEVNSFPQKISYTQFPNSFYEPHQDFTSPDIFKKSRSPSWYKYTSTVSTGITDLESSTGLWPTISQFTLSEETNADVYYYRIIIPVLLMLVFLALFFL

Regarding `CC(C)c1cc(-c2n[nH]c(=O)n2-c2ccc3c(ccn3C)c2)c(O)cc1O` [Ganetespib (STA9090)], the remaining activity at 10 µM in assay [1] is 78.2%; in [2] it was 82.6%; in assay [3], 87.2%; in assay [4] it was 66.4%; in assay [5], 91.2%; in assay [6], 110%.

As for `CC(C)c1cc(-c2n[nH]c(=O)n2-c2ccc3c(ccn3C)c2)c(O)cc1O` [Ganetespib], the remaining activity at 10 µM in assay [7] amounted to 91.8%; in assay [8], 97.7%; in assay [9] it was 97.2%; in assay [10], 101%.

With `CCNC(=O)c1noc(-c2cc(C(C)C)c(O)cc2O)c1-c1ccc(CN2CCOCC2)cc1` [Luminespib (AUY-922)], the “% Enzyme Activity (relative to DMSO controls)” value in assay [1] is recorded as 88.98%; in assay [2], 83.27%; in assay [3] it was 114.11%; in [4] it was 96.57%; in [5], 100.26%; in assay [6], 105.53%. Besides, the remaining activity at 10 µM in [1] was found to be 89.6%; in [2], 85.4%; in assay [3], 116%; in assay [4], 98.8%; in assay [5] it was 102%; in [6], 106%.

In the case of `CCNC(=O)c1noc(-c2cc(C(C)C)c(O)cc2O)c1-c1ccc(CN2CCOCC2)cc1` [Luminespib], the “% Enzyme Activity (relative to DMSO controls)” value is listed as 93.74% in assay [7], 96.83% in assay [8], 101.44% in [9] and 103.59% in assay [10]. The remaining activity at 10 µM in assay [7] is 94%; in assay [8] it was 97.5%; in assay [9] it was 102%; in assay [10], 105%.
